Assay results as given in paper PMC11459959, “Discovery of new acetamide derivatives of 5-indole-1,3,4-oxadiazol-2-thiol as inhibitors of HIV-1 Tat-mediated viral transcription” (Antimicrobial Agents and Chemotherapy, 2024).
Read-outs that look alike come from different tables or passages of the source.

Experiments:
[1] = system: Tat-mediated LTR transcription; assay: Dual-reporter assay, F-Luc (Tat-mediated LTR transcription) in bl-DTR cells; type: cell-based, HIV-1; settings: for IC50: Human immunodeficiency virus 1, 24 h, read-out: IC50 of F-Luc (Tat); for inhibitory effect on Tat (in words): F-Luc
Procedure: (§1) Fig 1 (A) (Top panel) Schematic representation of the primary compound screening using a dual-reporter system. […] (B). […] (Top graphs) bl-DTR cells (1 × 10^4) were treated with twofold serial dilutions of each compound before doxycycline (Dox) addition (final concentration, 50 ng/mL). After 24 h of treatment, the activities of firefly luciferase (F-Luc, red line) and Renilla luciferase (R-Luc, blue line) were determined using the Dual-Glo Luciferase assay system. (Bottom graphs) TZM-bl cells were treated with each indicated compound and subsequently infected with the HIV-1NL4-3 strain at a multiplicity of infection (MOI) of 1. At 48 h after infection, the viral infectivity (purple line) and cell viability (green line) were determined using the Bright-Glo luciferase assay kit and the PrestoBlue Cell Viability Reagent, respectively. […] (C). […] The targeted moieties for the SAR study are marked with dotted-circle lines.
(§2) The Tzm-bl-derived dual Tat reporter; TZM-bl/Tat/Rluc (bl-DTR) cells were established from TZM-bl cells using two Dox-inducible lentiviral expression cassettes cloned with Flag-tagged Tat86 and the R-Luc gene, as described in our previous study ([11]). TZM-bl, A3.01, J1.1, and J-Lat 6.3 cells as well as the HIV-1 molecular clone pNL4-3, pNL(AD8), ARV-resistant HIV-1 strains, and HIV-1NL43-IRES-eGFP (pBR43IeG-nef^+, gifted by Dr. Frank Kirchhoff) ([52]) were provided by the National Institute of Health HIV Reagent Program (NIH, Bethesda, MD, USA). HeLa (CCL-2) and 293T (CRL-3216) cell lines were purchased from the American Type Culture Collection (ATCC, Manassas, VA, USA). The bl-DTR, TZM-bl, HeLa, and 293T cells were cultured in Dulbecco’s modified Eagle’s medium supplemented with 1% penicillin–streptomycin and 10% (vol/vol) heat-inactivated fetal bovine serum (all from Gibco-BRL, Gaithersburg, MD, USA), and 1 µg/mL of puromycin and 200 µg/mL of zeocin were additionally supplemented for the bl-DTR cells. PBMCs were purchased from AllCells (Alameda, CA, USA) and cultured as previously described ([12]). The information on ARV-resistant HIV-1 strains was described in previous reports as follows: NNRTI-resistant 12241 and 12243 ([53]); NRTI-resistant 7396, 7406, and 7407 ([54]); INSTI-resistant 11847 and 11849 ([55], [56]); and PI-resistant 11800 and 11803 ([57]). Each molecular HIV-1 clone was transfected to 293T cells, as previously described ([58]), to obtain infectious HIV-1 particles. Virus-containing cell culture supernatants were collected 3 days after transfection, and filtered through a 0.45-µm membrane filter (Millipore Sigma, Burlington, MA, USA) to remove cell debris. The viral titration was performed as described previously ([59]) with some minor modifications. In brief, 1 × 10^4 TZM-bl cells seeded in 96-well plates were infected with 200 µL of virus-containing medium diluted serially twofold. The incubation was for 2 days and the experiment was performed in triplicate; the infection time minimized the virus spread ([59]). The titration of the infectious viral particles was performed with a ß-Gal staining assay using the ßeta-Galactosidase Staining Kit (Mirus Bio, Madison, WI, USA) following the manufacturer’s protocols. In brief, the infected cells were washed with phosphate-buffered saline (PBS) and fixed using a Cell Fixative Working solution. The cells were washed with PBS and stained using the Cell Staining Working Solution containing X-gal. The infected blue-colored cells were counted under a microscope (100× magnification). The infectious virus titer was determined as a mean value of blue-colored cells count × dilution factor and used for determining the multiplicity of infection (MOI) in each infection experiment.

[2] = system: general cellular transcription/translation (R-Luc); assay: Dual-reporter assay, R-Luc in bl-DTR cells; type: cell-based; settings: doxycycline, 24 h
Procedure: as §1, §2

HIV-1NL4-3 = assay: HIV-1 infectivity in TZM-bl cells (F-Luc); type: cell-based; settings: for EC50: Human immunodeficiency virus 1, TZM-bl, 48 h, TZM-bl cells infected with HIV-1NL4-3 at MOI 1, 48 h, F-Luc, mean ± SD; for SI (CC50/EC50) / inhibitory effect on HIV-1 infection (in words): TZM-bl cells; for inhibitory effect on HIV-1 infection (in words): HIV-1NL4-3
[3] = Cell viability of TZM-bl cells (PrestoBlue); type: cell-based; settings: human
Procedure: The TZM-bl cells (also referred to as JC53BL-13) expressing human CD4, CXCR4, and CCR5 carrying the F-Luc and lacZ genes downstream of the HIV-1 LTR promoter ([60]) were used to determine the inhibitory effect of the compounds on HIV-1 infection, as previously described ([11], [12], [61]). In brief, 1 × 10^4 cells were cultured in 96-well plates for 24 h and subsequently treated with compounds at the indicated concentrations. Without replacement of the culture medium, the cells were subsequently infected with the HIV-1NL4-3 wild-type or ARV-resistant HIV-1 strains at an MOI of 1 to determine the exact inhibitory effect of compounds on a single-round infection. After 48 h, the inhibitory effect of the compounds was determined using a Bright Glo luciferase assay kit (Promega) or β-Galactosidase Enzyme Assay kit (Promega). The infectivity data were presented as a percentage relative to the dimethyl sulfoxide (DMSO) control (vehicle). Cell viability was determined using the resazurin-based PrestoBlue Cell Viability Reagent (Thermo Fisher Scientific, Waltham, MA, USA) following the manufacturer’s instructions.

[4] = system: HIV-1NL4-3 IRES-eGFP-nef+; assay: eGFP-encoding HIV-1 infection of TZM-bl cells; type: cell-based; settings: 9, 10, 13 1.5 μM, 20, 21, 22 4 μM, seliciclib 10 µM, triptolide 5 nM, DTG 2 nM, EFV 2 nM, 2 days
Procedure: Fig 4 (A) Comparison of the chemical structures between prominent derivatives (9, 10, and 13) and non-functional derivatives (20, 21 and 22). (B) bl-DTR cells were treated with serial dilutions of each compound upon Dox for 24 h. The activities of F-Luc and R-Luc were determined using the Dual-Glo -Luciferase assay system. (C) TZM-bl cells were infected with the HIV-1NL4-3 strain at an MOI of 1 upon treatment of compounds. At 48 h after infection, the viral infectivity and cell viability were determined as described above (Fig. 1). (D) TZM-bl cells were infected with HIV-1NL4-3 IRES-eGFP virus along with the compound treatment. Two days later, GFP-expressing cells were observed by fluorescence microscopy (100× magnification). […] At 48 h after infection, the β-gal activity indicating viral infectivity was determined using the β-gal Enzyme Assay kit. F-Luc activity and cell viability were determined as described above (Fig. 4C). (C and E) The dose-response curves show the relative activity compared with that of the DMSO vehicle (mean ± SD; n = 3).

Molecule | IC50 [1] [µM] | Relative R-Luc activity at IC50 of F-Luc [2] | EC50 (HIV-1NL4-3; read-out: EC50) [µM] | SI (CC50/EC50) (HIV-1NL4-3) | CC50 at 48 h [3] [µM] | inhibitory effect on Tat (in words) ([1]; bl-DTR cells) | inhibitory effect on HIV-1 infection (in words) (HIV-1NL4-3) | inhibition of viral-expressed eGFP signal [4] | LTR activity increase induced by adding prostratin ([1]; bl-DTR cells, Dox, sustained in the presence of compounds 9 or 13) | EC50 (HIV-1NL4-3) [µM]
Cc1[nH]c2ccc(-c3nnc(SC(C)C(=O)N4CCCCC4)o3)cc2c1C (stereo not shown) [Compound 11, 2-((5-(2,3-Dimethyl-1H-indol-5-yl)-1,3,4-oxadiazol-2-yl)thio)-1-(piperidin-1-yl)propan-1-one] | 0.43 ± 0.03 | 100 | 0.4 ± 0.05 | 67.85 | 27.1 ± 1.95 |  |  |  |  | 
Cc1[nH]c2ccc(-c3nnc(S)o3)cc2c1C [Compound 3b, 5-(2,3-Dimethyl-1H-indol-5-yl)-1,3,4-oxadiazole-2-thiol] |  |  |  |  |  | did not exhibit a substantial biological effect | did not exhibit a substantial biological effect |  |  | 
Cc1[nH]c2ccc(-c3nnc(SCCC(=O)O)o3)cc2c1C [Compound B, 3-((5-(2,3-Dimethyl-1H-indol-5-yl)-1,3,4-oxadiazol-2-yl)thio)propanoic acid] | 2.29 ± 0.08 | >100 | 2.63 ± 0.34 | 16.97 | 44.6 ± 5.68 |  |  |  |  | 
Cc1[nH]c2ccc(-c3nnc(SCCN4CCCC4)o3)cc2c1C [Compound 25, 2-(2,3-Dimethyl-1H-indol-5-yl)-5-((2-(pyrrolidin-1-yl)ethyl)thio)-1,3,4-oxadiazole] |  |  |  |  |  | no effect was observed | no effect was observed |  |  | 
Cc1[nH]c2ccc(-c3nnc(SC(C)(C)C(=O)N4CCCCC4)o3)cc2c1C [Compound 12, 2-((5-(2,3-Dimethyl-1H-indol-5-yl)-1,3,4-oxadiazol-2-yl)thio)-2-methyl-1-(piperidin-1-yl)propan-1-one] |  |  |  |  |  | increased | increased |  |  | 
Cc1[nH]c2ccc(-c3nnc(SCCN4CCCCC4)o3)cc2c1C [Compound 24, 2-(2,3-Dimethyl-1H-indol-5-yl)-5-((2-(piperidin-1-yl)ethyl)thio)-1,3,4-oxadiazole] | 1.97 ± 0.03 | >100 | 3.02 ± 0.09 | 13.34 | 40.3 ± 1.74 | modest inhibitory effect |  |  |  | 
1-(Pyrrolidin-1-yl)-2-((5-(1,2,3-trimethyl-1H-indol-5-yl)-1,3,4-oxadiazol-2-yl)thio)ethan-1-one [Compound 19] |  |  |  |  |  | did not demonstrate any biological effect | did not demonstrate any biological effect |  |  | 
Cc1[nH]c2ccc(-c3nnc(SC(C)C(=O)N4CCCC4)o3)cc2c1C (stereo not shown) [Compound 14, 2-((5-(2,3-Dimethyl-1H-indol-5-yl)-1,3,4-oxadiazol-2-yl)thio)-1-(pyrrolidin-1-yl)propan-1-one] | 3.82 ± 0.12 | >100 | 3.31 ± 0.28 | 17.44 | 57.7 ± 6.01 |  |  |  |  | 
Cc1[nH]c2ccc(-c3nnc(SC(C)C(=O)N4CCCCC4)n3CCc3ccccc3)cc2c1C (stereo not shown) [Compound 30, 2-((5-(2,3-Dimethyl-1H-indol-5-yl)-4-phenethyl-4H-1,2,4-triazol-3-yl)thio)-1-(piperidin-1-yl)propan-1-one] | 1.74 ± 0.06 | 100 | 2.01 ± 0.11 | 11.26 | 22.6 ± 0.47 |  |  |  |  | 
Cc1[nH]c2ccc(-c3nnc(SCC(=O)N4CCCC(C)C4)o3)cc2c1C (stereo not shown) [Compound 10, 2-((5-(2,3-Dimethyl-1H-indol-5-yl)-1,3,4-oxadiazol-2-yl)thio)-1-(3-methylpiperidin-1-yl)ethan-1-one] | 1.1 ± 0.07 | >100 | 0.56 ± 0.05 | 147.27 | 82.5 ± 6.41 |  |  | remarkably inhibited |  | 
Cc1[nH]c2ccc(-c3nnc(SCC(=O)N4CCCC4)n3CCc3ccccc3)cc2c1C [Compound 31, 2-((5-(2,3-Dimethyl-1H-indol-5-yl)-4-phenethyl-4H-1,2,4-triazol-3-yl)thio)-1-(pyrrolidin-1-yl)ethan-1-one] | 3.42 ± 0.12 | >100 | 5.89 ± 0.05 | 9.39 | 55.3 ± 10.2 |  |  |  |  | 
CC(=O)O[C@@]12C[C@@H](C)[C@@]3(O)[C@@H](C=C(CO)C[C@]4(O)C(=O)C(C)=C[C@@H]34)[C@@H]1C2(C)C [prostratin, reference compound] |  |  |  |  |  |  |  |  | ~ 1.5 fold | 
Cc1[nH]c2ccc(-c3nnc(S(=O)(=O)CC(=O)N4CCCC4)o3)cc2c1C [Compound 22, 2-((5-(2,3-Dimethyl-1H-indol-5-yl)-1,3,4-oxadiazol-2-yl)sulfonyl)-1-(pyrrolidin-1-yl)ethan-1-one] |  |  |  |  |  |  |  | did not |  | 
2-((5-(2,3-Dimethyl-1H-indol-5-yl)-1,3,4-oxadiazol-2-yl)thio)-1-(pyrrolidin-1-yl)propan-1-one [Compound 15] |  |  |  |  |  | increased | increased |  |  | 
O=C(O)CCSc1nnc(-c2cccc3ccccc23)o1 [Compound A, 3-((5-(Naphthalen-1-yl)-1,3,4-oxadiazol-2-yl)thio)propanoic acid] | 4 |  |  |  |  |  |  |  |  | 4.19
Cc1[nH]c2ccc(-c3nnc(SCC(=O)N4CCCCC4)n3C)cc2c1C [Compound 28, 2-((5-(2,3-Dimethyl-1H-indol-5-yl)-4-methyl-4H-1,2,4-triazol-3-yl)thio)-1-(piperidin-1-yl)ethan-1-one] | 13.7 ± 0.53 | 90 | 21.2 ± 1.47 | 1.74 | 36.8 ± 12.6 | critical decrease of potency | critical decrease of potency |  |  | 
